Test results: patent US7144991B2, “Streptavidin expressed gene fusions and methods of use thereof” (Aletheon Pharmaceuticals, Inc., priority 1999, dated 2006)
Several values for one entry are separate records, joined by “and”; a condition that tells them apart may be missing. Equal entries are not always repeated.

Experiment: Biotin binding capacity
Details: 9-fold molar excess of [3H]biotin
Description: (§1) Biotin Binding and Dissociation. Biotin binding capacity was determined by incubation of a known quantity of fusion protein with a 9-fold molar excess of [3H]biotin (NEN Research Products, Boston, Mass.). After removal of uncomplexed biotin using streptavidin-immobilized beads (Pierce Chemical; Rockford, Ill.), the amount of [^3H]biotin associated with the fusion protein was determined.
as §1, with “Capacity.” for “and Dissociation.”, “[^3H]biotin” for “[3H]biotin”

Substance: recombinant streptavidin: recombinant streptavidin (Roche Biochemical), control in biotin binding and dissociation
- Biotin binding capacity (average biotins bound): 4 biotins and 4.0 biotins
